Data as given in US20110034434A1, “PRODRUGS OF FUSED HETEROCYCLIC INHIBITORS OF D-AMINO ACID OXIDASE” (SEPRACOR INC., priority 2009, published 2011).

Tests used:
[1] = Hydrolysis rate of test compounds in pH 7.4 and 2.0 aqueous solution; assay type: physicochemical; settings: HPLC; for Hydrolysis rate at pH 7.4: 0.05 M sodium phosphate buffer pH 7.4, over 6 hours; for Hydrolysis rate at pH 2.0: water adjusted with phosphoric acid to pH 2.0, over 2 hours
Protocol: 10 mM DMSO solutions of test compounds were diluted with a 0.05 M sodium phosphate buffer (pH 7.4) or water adjusted with phosphoric acid to pH 2.0, with a final concentration of 0.013 mg/mL. Samples were analyzed over either 2 or 6 hours, by HPLC.
The amount of test compound and the corresponding acid were determined. The rate of conversion of the test compound was calculated based on formation of the corresponding acid and loss of parent.
The rate of hydrolysis of test compounds to 4H-furo[3,2-b]pyrrole-5-carboxylic acid was evaluated in pH 7.4 aqueous solution over 6 hours, and in pH 2.0 aqueous solution over 2 hours, according to General Procedure 14.

D-serine = assay: PK-PD evaluation in rats: D-serine levels in cerebellum after oral dosing; assay type: in vivo; settings: rat cerebellum, 6 hours after PO dosing, dose normalized to 10 mg/kg of the acid; mean ± spread (n)
Protocol: Rats (Harlan male Sprague) (N=3) were dosed orally with an amount of test compound, suspended in 45% (w/v) hydroxy-β-cyclodextrin vehicle, dose normalized to 10 mg/kg of the corresponding carboxylic acid. Additional male cannulated rats (N=3) were dosed orally with the parent carboxylic acid, suspended in 45% (w/v) hydroxy-β-cyclodextrin vehicle, at 10 mg/kg. Animals were sacrificed at pre-determined time points (e.g., 0.5, 2 and/or 6 hours post administration) with an N=3 at each time point. At sacrifice, trunk blood was collected into tubes containing potassium EDTA, which were then centrifuged to permit isolation of plasma. The cerebellum was dissected from each animal. Plasma and cerebellum samples were stored at −80° C. until samples were analyzed using a SCIEX API2000 or SCIEX API5000 LC/MS/MS. Samples were analyzed for the amount of corresponding parent acid, D-serine, and/or the amount of test compound.
Conversion of test compounds to 4H-furo[3,2-b]pyrrole-5-carboxylic acid (“acid”; 77) in rats was evaluated according to General Procedure 12. 4H-furo[3,2-b]pyrrole-5-carboxylic acid and D-serine levels in plasma and cerebellum were measured. Animals were sacrificed at 6 hours post administration. In Table 6, “[D-serine] cerebellum” refers to D-serine levels, in nmol/g, in the rat cerebellum. In Table 6, “[acid] cerebellum” refers to the concentration, in μM, of the 4H-furo[3,2-b]pyrrole-5-carboxylic acid in the cerebellum. In Table 6, “[acid] plasma” refers to the concentration, in μM, of the 4H-furo[3,2-b]pyrrole-5-carboxylic acid in the plasma. The row labeled “acid”, denotes the data obtained from dosing 4H-furo[3,2-b]pyrrole-5-carboxylic acid. The row labeled “vehicle” denotes the data obtained from dosing vehicle, and the remaining row in the table denote the data obtained from dosing the test compounds.

Structure (SMILES)	Hydrolysis rate at pH 7.4 [1]	Hydrolysis rate at pH 2.0 [1]	[D-serine] cerebellum (D-serine)
O=C(OCC(=O)N1CCOCC1)c1cc2occc2[nH]1 [compound 21, 2-morpholino-2-oxoethyl 4H-furo[3,2-b]pyrrole-5-carboxylate]	No hydrolysis	No hydrolysis	19 ± 1.0(6) nmol/g
CN(C)C(=O)COC(=O)c1cc2occc2[nH]1 [compound 20, 2-(dimethylamino)-2-oxoethyl 4H-furo[3,2-b]pyrrole-5-carboxylate]	No hydrolysis	No hydrolysis	19 ± 0.8(6) nmol/g
O=C(OCCN1CCOCC1)c1cc2occc2[nH]1 [compound 30, 2-morpholinoethyl 4H-furo[3,2-b]pyrrole-5-carboxylate]	No hydrolysis	No hydrolysis	14 ± 1.2(3) nmol/g
O=C(OCC1CCCO1)c1cc2occc2[nH]1 (centres unmarked) [compound 10, (tetrahydrofuran-2-yl)methyl 4H-furo[3,2-b]pyrrole-5-carboxylate]	No hydrolysis	No hydrolysis	19 ± 2.0(6) nmol/g
O=C(OCC(=O)N1CCC1)c1cc2occc2[nH]1 [compound 19, 2-(azetidin-1-yl)-2-oxoethyl 4H-furo[3,2-b]pyrrole-5-carboxylate]	No hydrolysis	No hydrolysis	17 ± 0.7(3) nmol/g
CC(OC(=O)OC1CCCCC1)OC(=O)c1cc2occc2[nH]1 (centres unmarked) [compound 39, 1-(cyclohexyloxycarbonyloxy)ethyl 4H-furo[3,2-b]pyrrole-5-carboxylate]	0.21%/hr		17 ± 2.6(3) nmol/g
Cc1oc(=O)oc1COC(=O)c1cc2occc2[nH]1 [compound 72, (5-methyl-2-oxo-1,3-dioxol-4-yl)methyl 4H-furo[3,2-b]pyrrole-5-carboxylate]	0.20%/hr	No hydrolysis	21 ± 3.5(9) nmol/g
CC(C)OC(=O)OC(C)OC(=O)c1cc2occc2[nH]1 (centres unmarked) [compound 36, 1-(isopropoxycarbonyloxy)ethyl 4H-furo[3,2-b]pyrrole-5-carboxylate]			20 ± 2.9(6) nmol/g
CCC(=O)OCOC(=O)c1cc2occc2[nH]1 [compound 42, propionyloxymethyl 4H-furo[3,2-b]pyrrole-5-carboxylate]			20 ± 1.5(3) nmol/g
CC(OC(=O)c1cc2occc2[nH]1)OC(=O)C(C)C (centres unmarked) [compound 35, 1-(isobutyryloxy)ethyl 4H-furo[3,2-b]pyrrole-5-carboxylate]	3.46%/hr		16 ± 0.9(3) nmol/g
CC(C)C(=O)OCn1c(C(=O)O)cc2occc21 [compound 67, 4-(isobutyryloxymethyl)-4H-furo[3,2-b]pyrrole-5-carboxylic acid]			14 ± 0.9(3) nmol/g
CC(C)CCCOC(=O)c1cc2occc2[nH]1 [compound 8, 4-methylpentyl 4H-furo[3,2-b]pyrrole-5-carboxylate]			20 ± 1.5(3) nmol/g
